One data set has as its target T1, Caspase-1 (Homo sapiens) (UniProt P29466).
T1 sequence (whole entry): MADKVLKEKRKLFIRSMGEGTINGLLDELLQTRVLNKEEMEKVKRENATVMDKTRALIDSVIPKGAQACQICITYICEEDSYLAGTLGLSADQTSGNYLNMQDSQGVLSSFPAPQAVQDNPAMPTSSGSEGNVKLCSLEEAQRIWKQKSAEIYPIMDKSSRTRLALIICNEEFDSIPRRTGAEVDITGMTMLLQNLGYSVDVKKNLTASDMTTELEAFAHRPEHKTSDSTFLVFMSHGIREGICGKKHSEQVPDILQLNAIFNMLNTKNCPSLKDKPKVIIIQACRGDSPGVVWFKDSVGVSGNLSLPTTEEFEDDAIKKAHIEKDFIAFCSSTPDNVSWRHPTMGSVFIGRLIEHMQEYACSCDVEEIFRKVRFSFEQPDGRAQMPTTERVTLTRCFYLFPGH
In words: Inhibition of recombinant human caspase-1 expressed in Escherichia coli BL21 cells assessed as remaining activity at 10 uM using […] as substrate incubated for 30 mins relative to control.

The target of another data set is T2, Caspase-1 (Homo sapiens, UniProt P29466).
T2 sequence (P29466 whole entry): T1 sequence (whole entry)
In words: Inhibition of recombinant human caspase-1 expressed in Escherichia coli BL21 cells using […] as substrate incubated for 30 mins.

Data set [1] concerns the target NACHT, LRR and PYD domains-containing protein 3 (Mus musculus) (UniProt Q8R4B8). As to the kind of experiment: Inhibition of NLRP3 inflammasome activation in LPS/MSU stimulated mouse J774.A1 cells assessed as reduction in IL-1beta production incubated for 4 hrs by ELISA. Type of data set: cell-based. For orientation: In an ELISA, binding on a coated surface is turned into a signal by an enzyme label.

Data set [2] concerns THP-1. As to the kind of experiment: Effect on pro-caspase 1 protein expression in LPS/nigericin stimulated human THP-1 cells supernatant at 0.5 to 2 uM by Western blotting analysis. In kind it is functional, cell-based. The settings on record: dose 0.5-2 µM.
The subject of data set [3] is THP-1. In words: Inhibition of p20 fragment of IL-1beta protein expression in LPS/nigericin stimulated human THP-1 cells supernatant at 0.5 to 2 uM by Western blotting analysis. Type of data set: functional, cell-based. The settings on record: dose 0.5-2 µM. (In general: In western blotting, separated proteins are transferred to a membrane and probed.)
The test system of data set [4] is THP-1. As to the kind of experiment: Effect on pro-caspase 1 protein expression in LPS/MSU stimulated human THP-1 cells supernatant by Western blotting analysis. In kind it is functional, cell-based.
For data set [5], the system named is THP-1. As to the kind of experiment: Inhibition of p20 fragment of caspase 1 protein expression in LPS/MSU stimulated human THP-1 cells supernatant by Western blotting analysis. In kind it is functional, cell-based.
Data set [6] deals with THP-1. In words: Effect on pro caspase-5 expression in human THP-1 cells at 2 uM pretreated with pam3CSK4 for 3 hrs followed by compound addition for 30 mins prior to cytosolic LPS stimulation for 16 hrs by ELISA. Type of data set: functional, cell-based. The note with it: time 16.5 hrs.
The test system of a further data set is BMDM. As to the kind of experiment: Effect on cleaved caspase-11 expression in mouse BMDM cells at 0.5 to 2 uM pretreated with pam3CSK4 for 3 hrs followed by compound addition for 30 mins prior to cytosolic LPS stimulation for 16 hrs by ELISA. Type of data set: functional, cell-based. The note with it: dose 0.5-2 µM, time 16.5 hrs.
The target of data set [7] is Interferon-inducible protein AIM2 (Mus musculus) (UniProt Q91VJ1). In words: Inhibition of AIM2 inflammasome activation in mouse BMDMs assessed as reduction in caspase-1 activation at 0.5 to 2 uM primed with LPS for 3 hrs followed by incubation with compound for 30 mins and later stimulated with poly (dA:dT) for 16 hrs. In kind it is cell-based. The note with it: BMDM, dose 0.5-2 µM, time 16.5 hrs.

For data set [8], the system named is J774.A1. In words: Downregulation of IKKalpha/beta phosphorylation in mouse J774.A1 cells at 0.5 to 2 uM preincubated for 30 mins followed by LPS addition and measured after 2 hrs by Western blotting analysis. The settings on record: dose 0.5-2 µM, time 2.5 hrs. Type of data set: functional, cell-based.
In data set [9] the test system is J774.A1. In words: Inhibition of mitochondrial damage in LPS/nigericin stimulated mouse J774.A1 cells. In kind it is functional, cell-based.
In another data set the target is T3, Caspase-1 (Mus musculus) (UniProt P29452).
T3 sequence (whole entry): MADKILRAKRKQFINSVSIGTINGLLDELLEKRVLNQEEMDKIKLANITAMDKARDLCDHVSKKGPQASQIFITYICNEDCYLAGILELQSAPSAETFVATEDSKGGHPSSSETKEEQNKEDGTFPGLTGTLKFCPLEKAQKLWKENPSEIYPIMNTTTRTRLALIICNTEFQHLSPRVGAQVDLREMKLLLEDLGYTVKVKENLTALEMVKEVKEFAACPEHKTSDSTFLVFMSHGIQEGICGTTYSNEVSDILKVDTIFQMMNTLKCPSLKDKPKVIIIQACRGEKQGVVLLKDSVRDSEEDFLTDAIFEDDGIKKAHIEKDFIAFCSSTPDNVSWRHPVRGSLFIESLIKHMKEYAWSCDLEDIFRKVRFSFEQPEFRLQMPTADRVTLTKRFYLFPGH
In words: Binding affinity to caspase-1 in LPS-induced mouse J774.A1 cells assessed as reduction in IL-1beta level at 0.5 uM preincubated with compound followed by nigericin addition. In kind it is cell-based. The note with it: time 3-24 hrs, TDE = time-dependent effect.

The test system of data set [10] is Caspase-1 (Homo sapiens), P29466 [C397A]. As to the kind of experiment: Binding affinity to recombinant caspase-1 C397A mutant (unknown origin) at 2 uM by SDS-PAGE analysis.
The test system of data set [11] is Caspase-1 (Homo sapiens), P29466 [C285A]. In words: Binding affinity to Flag-tagged caspase-1 C285A mutant (unknown origin) expressed in HEK293T cells by pull-down assay. Type of data set: cell-based. The note with it: dose 2.0 µM.
Data set [12] in a line: Acute toxicity in Kunming mouse assessed as change in ALT level at 100 mg/kg, ip administered for 14 days. The settings on record: in vivo, 336 h, time 14 day. Type of data set: organism-based.
Data set [13] in a line: Tmax in rat at 25 mg/kg, po. Type of data set: ADME, organism-based. The settings on record: in vivo.
Data set [14] relates to Mus musculus. As to the kind of experiment: Anti-inflammatory activity in MSU/C18:0 free fatty acid induced Kunming mouse model of gouty arthritis assessed as reduction in joint swelling at 5 to 20 mg/kg, ip preadministered with compound for 30 mins followed by MSU/C18:0 free fatty acid injection and measured after 24 hrs. In kind it is functional, organism-based. The note with it: dose 5-20 mg/kg, time 24.5 hrs.

For data set [15], the system named is Mus musculus. In words: Anti-inflammatory activity in MSU/C18:0 free fatty acid induced Kunming mouse model of gouty arthritis assessed as reduction IL-1beta release at 5 to 20 mg/kg, ip preadministered with compound for 30 mins followed by MSU/C18:0 free fatty acid injection and measured after 24 hrs by ELISA. Type of data set: functional, organism-based. The settings on record: dose 5-20 mg/kg, time 24.5 hrs.

Data set [16] deals with Mus musculus. In words: Anti-inflammatory activity in MSU/C18:0 free fatty acid induced Kunming mouse model of gouty arthritis assessed as effect on pro-IL-1beta expression at 5 to 20 mg/kg, ip preadministered with compound for 30 mins followed by MSU/C18:0 free fatty acid injection and measured after 24 hrs by Western blotting analysis. The settings on record: dose 5-20 mg/kg, time 24.5 hrs. In kind it is functional, organism-based.

Data set [17] deals with Mus musculus. As to the kind of experiment: Anti-inflammatory activity in MSU/C18:0 free fatty acid induced ip dosed Casp1 knockout Kunming mouse model of gouty arthritis assessed as reduction in foot swelling preadministered with compound for 30 mins followed by MSU/C18:0 free fatty acid injection and measured after 24 hrs. In kind it is functional, organism-based. The note with it: time 24.5 hrs.

Data set [18] has as its system Mus musculus. In words: Anti-inflammatory activity in LPS/MSU-induced C57BL/6 mouse model of acute peritonitis assessed as reduction in IL-1beta expression at 20 mg/kg, ip preadministered intraperitoneally with compound for 30 mins followed by MSU injection and measured after 6 hrs by ELISA. In kind it is functional, organism-based. The settings on record: time 6.5 hrs.

Data set [19] is filed under the species Mus musculus. In words: Inhibition of pain perception in MSU/C18:0 free fatty acid induced wild type mouse measured upto 24 hrs. In kind it is functional, organism-based.

For orientation: IC50 means the point on the concentration scale where inhibition reaches its midpoint. Broadly, the Tmax is the time at which the peak concentration occurs.

Molecules are shown by their SMILES. Activity calls are given as the source filed them. The calls are words filed in the database; no cut-off is given here.

NACHT, LRR and PYD domains-containing protein 3 (Mus musculus), sequence (Q8R4B8 whole entry, the tested form may be a part): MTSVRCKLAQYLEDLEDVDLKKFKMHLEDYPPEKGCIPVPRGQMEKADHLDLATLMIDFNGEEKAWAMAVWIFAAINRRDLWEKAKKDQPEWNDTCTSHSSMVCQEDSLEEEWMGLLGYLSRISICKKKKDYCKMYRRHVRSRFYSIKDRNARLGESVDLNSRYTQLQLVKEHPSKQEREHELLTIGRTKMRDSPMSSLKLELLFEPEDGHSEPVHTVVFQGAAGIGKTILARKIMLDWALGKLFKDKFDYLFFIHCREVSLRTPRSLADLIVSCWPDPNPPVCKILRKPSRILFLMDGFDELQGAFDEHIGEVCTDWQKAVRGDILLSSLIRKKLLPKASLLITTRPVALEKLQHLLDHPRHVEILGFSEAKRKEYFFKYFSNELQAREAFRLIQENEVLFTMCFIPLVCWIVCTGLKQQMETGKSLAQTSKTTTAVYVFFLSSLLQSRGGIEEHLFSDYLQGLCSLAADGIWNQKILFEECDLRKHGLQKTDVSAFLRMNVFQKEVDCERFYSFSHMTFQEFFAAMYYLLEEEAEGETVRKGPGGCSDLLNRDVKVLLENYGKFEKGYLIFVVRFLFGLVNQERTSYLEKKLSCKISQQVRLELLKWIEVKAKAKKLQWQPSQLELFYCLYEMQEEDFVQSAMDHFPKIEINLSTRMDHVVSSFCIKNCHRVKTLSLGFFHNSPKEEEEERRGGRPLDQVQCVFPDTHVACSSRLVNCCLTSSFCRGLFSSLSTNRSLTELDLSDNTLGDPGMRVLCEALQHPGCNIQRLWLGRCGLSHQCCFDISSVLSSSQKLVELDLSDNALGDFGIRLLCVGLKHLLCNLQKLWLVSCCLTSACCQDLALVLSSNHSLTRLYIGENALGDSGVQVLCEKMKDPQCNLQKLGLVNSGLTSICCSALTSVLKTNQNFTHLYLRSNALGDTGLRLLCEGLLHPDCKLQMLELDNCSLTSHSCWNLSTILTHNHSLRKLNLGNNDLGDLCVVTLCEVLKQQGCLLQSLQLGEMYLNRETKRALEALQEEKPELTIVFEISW
Caspase-1 (Homo sapiens), P29466 [C285A], sequence (P29466 whole entry C285A): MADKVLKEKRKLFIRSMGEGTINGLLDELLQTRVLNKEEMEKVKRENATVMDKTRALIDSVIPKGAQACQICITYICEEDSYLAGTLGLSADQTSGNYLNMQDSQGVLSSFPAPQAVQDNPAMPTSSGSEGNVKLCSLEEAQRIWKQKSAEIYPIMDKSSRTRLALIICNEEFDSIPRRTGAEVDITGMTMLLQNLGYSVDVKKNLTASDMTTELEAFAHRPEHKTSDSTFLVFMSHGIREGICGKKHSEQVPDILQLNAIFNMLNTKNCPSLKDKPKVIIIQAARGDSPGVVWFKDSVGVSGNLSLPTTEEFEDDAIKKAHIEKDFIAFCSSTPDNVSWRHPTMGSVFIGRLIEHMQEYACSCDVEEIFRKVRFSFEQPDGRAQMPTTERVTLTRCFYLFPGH
Interferon-inducible protein AIM2 (Mus musculus), sequence (Q91VJ1 whole entry): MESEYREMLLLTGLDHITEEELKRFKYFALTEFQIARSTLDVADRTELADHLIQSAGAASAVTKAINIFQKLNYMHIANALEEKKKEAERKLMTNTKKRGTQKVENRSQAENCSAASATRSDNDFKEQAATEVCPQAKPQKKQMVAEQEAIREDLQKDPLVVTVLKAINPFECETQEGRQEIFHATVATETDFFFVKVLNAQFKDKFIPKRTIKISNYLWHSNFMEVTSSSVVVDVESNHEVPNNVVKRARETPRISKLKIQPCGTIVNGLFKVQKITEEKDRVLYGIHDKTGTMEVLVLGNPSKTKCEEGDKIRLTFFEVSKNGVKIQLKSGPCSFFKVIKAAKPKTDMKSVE
Caspase-1 (Homo sapiens), P29466 [C397A], sequence (P29466 whole entry C397A): as the sequence (P29466 whole entry C285A) above, with A285C, C397A counted along it

As to `COc1ccc2c(c1)[C@]1(C=C[C@H](N=C=S)C[C@H]1C(=O)OC(C)(C)C)C(=O)N2C(=O)OCc1ccccc1`, the Activity is 31% on Caspase-1 (Homo sapiens), “Tde” at Caspase-1 (Mus musculus) and “Non-Toxic” in [12]. The half-inhibitory concentration (IC50) at Caspase-1 amounted to 0.65 µM. The inhibition result (in data set [1]; in the data set with THP-1 [3]; with THP-1 [5]; in [7]; in the data set listed under Mus musculus [19]) was “Active” in each case. Also, the result (in the data set on THP-1 [2]; with THP-1 [4]; in the data set on THP-1 [6]; with BMDM; in data set [10]; in data set [11]) was inactive. The outcome in the data set on Mus musculus [16] and in the data set on Mus musculus [17] was inactive. The outcome in the data set with J774.A1 [8], in the data set with Mus musculus [14], with Mus musculus [15] and in the data set on Mus musculus [18] was Active. In addition, the inhibition entry in the data set with J774.A1 [9] was “inactive”. The time of peak concentration (Tmax) in [13] was 1.5 h.

Source of the values: ChEMBL document CHEMBL5584334, “Discovery of a Covalent Inhibitor of Pro-Caspase-1 Zymogen Blocking NLRP3 Inflammasome Activation and Pyroptosis” (J Med Chem, 2024).
